In patent US12305197B2, “Proliferation method” (Kao Corporation, priority 2019, dated 2025):

Experiments:
[1] = system: H1N1pdm influenza virus strain (A/Shizuoka/830/2009); type: cell-based
[2] = system: influenza B virus strain (B/Lee/1940); type: cell-based
[3] = system: H3N2 influenza virus strain (A/Memphis/l/1971); type: cell-based
[4] = system: H3N2 influenza virus strain (A/Memphis/l/1971); type: cell-based; remark: listed apart in the source
[5] = system: influenza B virus strain (B/Lee/1940); type: cell-based; remark: listed apart in the source
[6] = system: H1N1 (laboratory strain) influenza virus strain; type: cell-based, influenza A virus
[7] = system: H1N1pdm influenza virus strain (A/Shizuoka/830/2009); type: cell-based; remark: listed apart in the source
[8] = system: H1N1 influenza virus strain (A/Puerto Rico/8/1934); conditions: in vivo
[9] = system: H1N1 (laboratory strain) influenza virus strain; type: cell-based, influenza A virus; remark: listed apart in the source

Substance | HA titer of influenza virus [1] | HA titer of influenza virus, low Bax inhibitor concentration [1] | HA titer of influenza virus, time-dependent [1] | amount of influenza B virus (virus proliferation capacity) by plaque assay [2] | HA titer of influenza virus [3] | HA titer of influenza virus, low Bax inhibitor concentration [3] | HA titer of influenza virus, time-dependent [3] | amount of influenza virus (virus proliferation capacity) by focus assay [4] | HA titer of influenza B virus [5] | HA titer of influenza virus, low Bax inhibitor concentration [6] | amount of influenza virus (virus proliferation capacity) by focus assay [7] | increase of viral titer versus control group [8] [times] | viral titer compared with 10-fold control group (5×10^3 EID50/chicken egg) [8] | amount of influenza virus (virus proliferation capacity) by focus assay, low concentration [4] | amount of influenza virus (virus proliferation capacity) by focus assay, low concentration [7] | amount of influenza virus (virus proliferation capacity) by focus assay, low concentration [9]
Val-Pro-Met-Leu-Lys (VPMLK) [SEQ ID NO: 1] | increases | increases | increases the HA titer of the influenza virus strains in the early stages of the culture | exhibit the effect of enhancing the virus proliferation capacity | increases | increases | increases the HA titer of the influenza virus strains in the early stages of the culture | exhibits the effect of enhancing the virus proliferation capacity | increases | increases | exhibits the effect of enhancing the virus proliferation capacity |  |  |  |  | 
Val-Ser-Ala-Leu-Lys (VSALK) [SEQ ID NO: 7] |  |  |  |  |  |  |  |  |  |  |  | 1.27 | higher |  |  | 
Pro-Met-Leu-Lys-Glu (PMLKE) [SEQ ID NO: 2] |  | increase in the HA titer of the influenza virus was also observed |  | exhibit the effect of enhancing the virus proliferation capacity |  | increase in the HA titer of the influenza virus was also observed |  |  | increases | increase in the HA titer of the influenza virus was also observed |  |  |  | enhances the virus proliferation capacity | enhances the virus proliferation capacity | enhances the virus proliferation capacity
